Measured values taken from paper PMC9905117, “Characterization of the metabolism of eupalinolide A and B by carboxylesterase and cytochrome P450 in human liver microsomes” (Frontiers in Pharmacology, 2023).

Test system: Carboxylesterase
Assay: Inhibition of EA or EB hydrolysis in HLMs by carboxylesterase inhibitor BNPP
Assay type: biochemical, human
Conditions: HLMs 0.5 g/L, no NADPH, 30 min
Experimental: To determine ideal BNPP concentration for inhibiting carboxylesterase activity in HLMs, an incubation system consisting of 100 mM phosphate buffer solution at pH 7.4, HLMs (0.5 g/L), MgCl2 (5 mM) and BNPP (0.5, 1, 1.5 and 2 mM) was prepared ([Zhuang et al., 2014]; [Wang Y. Q. et al., 2020]; [Zhang et al., 2022d]; [Jin et al., 2022]). The mixture was preincubated at 37°C for 5 min and the metabolic reaction was initiated by addition of EA or EB (at a final concentration of 10 μM). Positive control groups lacked BNPP while negative control groups contained deactivated HLMs. […] The above reaction was terminated by adding 200 µl of ice-cold stop solution at 30 min. Sample preparation and evaluation were as described in 2.2.1. All incubations were performed in triplicate. The percentage of EA or EB hydrolysis inhibition was calculated using the following Eq. 1: Inhibition%=1−∆substrate in the presence of chemical inhibitor/∆substrate in the absence of chemical inhibitor×100% (1)

## O=[N+]([O-])c1ccc(OP(=O)(O)Oc2ccc([N+](=O)[O-])cc2)cc1 [BNPP, bis(4-nitrophenyl) phosphoricacid]
BNPP 0.5 mM, EA 10 μM
  inhibitory percentage of EA hydrolysis: 87.38%
BNPP 2 mM, EB 10 μM
  inhibitory rate of EB hydrolysis: 86.11%
